Experimental data from US20240050428A1 (Cullgen (Shanghai), Inc., priority 2020, published 2024).
Where two headings read alike, the source gives them in different places.

Key:
MV4;11 cells = test: Cell viability assay (CellTiter-Glo) in MV4;11 cells, alone or with gilteritinib; type: cell-based; details: Homo sapiens, MV4-11, 72 h, read-out: MV4
MOLM-13 cells = test: Cell viability assay (CellTiter-Glo) in MOLM-13 cells, alone or with gilteritinib; type: cell-based; details: Homo sapiens, MOLM-13, 72 h
[1] = MV4;11 cells, compound alone (without gilteritinib), three days, CellTiter-Glo, 11 IC50
[2] = MV4;11 cells, with gilteritinib 10 nM, three days, CellTiter-Glo, 11 IC50 gilteritinib
[3] = MOLM-13 cells, compound alone (without gilteritinib), three days, CellTiter-Glo, read-out: MOLM-13 IC50
[4] = MOLM-13 cells, with gilteritinib 20 nM, three days, CellTiter-Glo, read-out: MOLM-13 IC50 gilteritinib

Compound	IC50 (MV4;11 cells; [1]) [nM]	IC50 (MV4;11 cells; [2]) [nM]	IC50 (MOLM-13 cells; [3]) [nM]	IC50 (MOLM-13 cells; [4]) [nM]	IC50 (MV4;11 cells; 11 IC50) [nM]	IC50 (MV4;11 cells; 11 IC50 gilteritinib) [nM]	IC50 (MOLM-13 cells; read-out: MOLM-13 IC50) [nM]	IC50 (MOLM-13 cells; read-out: MOLM-13 IC50 gilteritinib) [nM]
O=C1CCC(N2Cc3c(Nc4ccnc(Nc5cccc(N6CCC(n7cc(-c8cnc9ccccc9n8)cn7)CC6)c5)n4)cccc3C2=O)C(=O)N1 (centres unmarked) [GS-025, 3-(1-Oxo-4-((2-((3-(4-(4-(quinoxalin-2-yl)-1H-pyrazol-1-yl)piperidin-1-yl)phenyl)amino)pyrimidin-4-yl)amino)isoindolin-2-yl)piperidine-2,6-dione]	10 to 100	< 10	< 10	< 10	–	–	–	–
O=C1CCC(N2Cc3c(Nc4ccnc(Nc5ccc(N6CCC(n7cc(-c8cnc9cccc(Br)c9n8)cn7)CC6)cc5)n4)cccc3C2=O)C(=O)N1 (centres unmarked) [GS-026, 3-(4-((2-((4-(4-(4-(8-Bromoquinoxalin-2-yl)-1H-pyrazol-1-yl)piperidin-1-yl)phenyl)amino)pyrimidin-4-yl)amino)-1-oxoisoindolin-2-yl)piperidine-2,6-dione]	> 1000	> 1000	> 1000	> 1000	–	–	–	–
O=C1CCC(N2Cc3c(Nc4ccnc(Nc5ccc(N6CCC(n7cc(-c8cnc9ccccc9n8)cn7)CC6)cc5)n4)cccc3C2=O)C(=O)N1 (centres unmarked) [GS-027, 3-(1-Oxo-4-((2-((4-(4-(4-(quinoxalin-2-yl)-1H-pyrazol-1-yl)piperidin-1-yl)phenyl)amino)pyrimidin-4-yl)amino)isoindolin-2-yl)piperidine-2,6-dione]	> 1000	> 1000	100 to 1000	> 1000	–	–	–	–
O=C1CCC(N2Cc3c(Nc4ccnc(Nc5cccc(CN6CCC(n7cc(-c8cnc9cccc(Br)c9n8)cn7)CC6)c5)n4)cccc3C2=O)C(=O)N1 (centres unmarked) [GS-028, 3-(4-((2-((3-((4-(4-(8-Bromoquinoxalin-2-yl)-1H-pyrazol-1-yl)piperidin-1-yl)methyl)phenyl)amino)pyrimidin-4-yl)amino)-1-oxoisoindolin-2-yl)piperidine-2,6-dione]	10 to 100	10 to 100	100 to 1000	10 to 100	–	–	–	–
O=C1CCC(N2Cc3c(Nc4ccnc(Nc5cccc(CN6CCC(n7cc(-c8cnc9ccccc9n8)cn7)CC6)c5)n4)cccc3C2=O)C(=O)N1 (centres unmarked) [GS-029, 3-(1-Oxo-4-((2-((3-((4-(4-(quinoxalin-2-yl)-1H-pyrazol-1-yl)piperidin-1-yl)methyl)phenyl)amino)pyrimidin-4-yl)amino)isoindolin-2-yl)piperidine-2,6-dione]	> 1000	> 1000	> 1000	> 1000	–	–	–	–
O=C1CCC(N2Cc3c(Nc4ccnc(Nc5ccc(CN6CCC(n7cc(-c8cnc9cccc(Br)c9n8)cn7)CC6)cc5)n4)cccc3C2=O)C(=O)N1 (centres unmarked) [GS-030, 3-(4-((2-((4-((4-(4-(8-Bromoquinoxalin-2-yl)-1H-pyrazol-1-yl)piperidin-1-yl)methyl)phenyl)amino)pyrimidin-4-yl)amino)-1-oxoisoindolin-2-yl)piperidine-2,6-dione]	> 1000	> 1000	> 1000	> 1000	–	–	–	–
O=C1CCC(N2Cc3c(Nc4ccnc(Nc5ccc(CN6CCC(n7cc(-c8cnc9ccccc9n8)cn7)CC6)cc5)n4)cccc3C2=O)C(=O)N1 (centres unmarked) [GS-031, 3-(1-Oxo-4-((2-((4-((4-(4-(quinoxalin-2-yl)-1H-pyrazol-1-yl)piperidin-1-yl)methyl)phenyl)amino)pyrimidin-4-yl)amino)isoindolin-2-yl)piperidine-2,6-dione]	10 to 100	< 10	10 to 100	10 to 100	–	–	–	–
O=C1CCC(N2C(=O)c3ccc(NCCCCCC(=O)N4CCC(n5cc(-c6cnc7cccc(N8CCOCC8)c7n6)cn5)CC4)cc3C2=O)C(=O)N1 (centres unmarked) [GS-034, 2-(2,6-Dioxopiperidin-3-yl)-5-((6-(4-(4-(8-morpholinoquinoxalin-2-yl)-1H-pyrazol-1-yl)piperidin-1-yl)-6-oxohexyl)amino)isoindoline-1,3-dione]	100 to 1000	< 10	> 1000	< 10	–	–	–	–
O=C1CCC(N2C(=O)c3ccc(NCCCCCC(=O)N4CCC(n5cc(-c6cnc7cccc(N8CCNCC8)c7n6)cn5)CC4)cc3C2=O)C(=O)N1 (centres unmarked) [GS-035, 2-(2,6-Dioxopiperidin-3-yl)-5-((6-oxo-6-(4-(4-(8-(piperazin-1-yl)quinoxalin-2-yl)-1H-pyrazol-1-yl)piperidin-1-yl)hexyl)amino)isoindoline-1,3-dione]	10 to 100	< 10	> 1000	< 10	–	–	–	–
CN1CCN(c2cccc3ncc(-c4cnn(C5CCN(C(=O)CCCCCNc6ccc7c(c6)C(=O)N(C6CCC(=O)NC6=O)C7=O)CC5)c4)nc23)CC1 (centres unmarked) [GS-036, 2-(2,6-Dioxopiperidin-3-yl)-5-((6-(4-(4-(8-(4-methylpiperazin-1-yl)quinoxalin-2-yl)-1H-pyrazol-1-yl)piperidin-1-yl)-6-oxohexyl)amino)isoindoline-1,3-dione]	> 1000	< 10	> 1000	10 to 100	–	–	–	–
O=C1CCC(N2C(=O)c3ccc(NCCCCCC(=O)N4CCC(n5cc(-c6cnc7cccc(C8CCOCC8)c7n6)cn5)CC4)cc3C2=O)C(=O)N1 (centres unmarked) [GS-043, 2-(2,6-Dioxopiperidin-3-yl)-5-((6-oxo-6-(4-(4-(8-(tetrahydro-2H-pyran-4-yl)quinoxalin-2-yl)-1H-pyrazol-1-yl)piperidin-1-yl)hexyl)amino)isoindoline-1,3-dione]	10 to 100	< 10	10 to 100	< 10	–	–	–	–
O=C1CCC(N2C(=O)c3ccc(NCCCCCC(=O)N4CCC(n5cc(-c6cnc7cccc(C8CCNCC8)c7n6)cn5)CC4)cc3C2=O)C(=O)N1 (centres unmarked) [GS-044, 2-(2,6-dioxopiperidin-3-yl)-5-((6-oxo-6-(4-(4-(8-(piperidin-4-yl)quinoxalin-2-yl)-1H-pyrazol-1-yl)piperidin-1-yl)hexyl)amino)isoindoline-1,3-dione]	10 to 100	< 10	10 to 100	< 10	–	–	–	–
CN1CCC(c2cccc3ncc(-c4cnn(C5CCN(C(=O)CCCCCNc6ccc7c(c6)C(=O)N(C6CCC(=O)NC6=O)C7=O)CC5)c4)nc23)CC1 (centres unmarked) [GS-045, 2-(2,6-Dioxopiperidin-3-yl)-5-((6-(4-(4-(8-(1-methylpiperidin-4-yl)quinoxalin-2-yl)-1H-pyrazol-1-yl)piperidin-1-yl)-6-oxohexyl)amino)isoindoline-1,3-dione]	100 to 1000	< 10	> 1000	< 10	–	–	–	–
CN1CCN(c2cnn(C3CCN(C(=O)CCCCCNc4ccc5c(c4)C(=O)N(C4CCC(=O)NC4=O)C5=O)CC3)c2)CC1 (centres unmarked) [GS-046, 2-(2,6-Dioxopiperidin-3-yl)-5-((6-(4-(4-(4-methylpiperazin-1-yl)-1H-pyrazol-1-yl)piperidin-1-yl)-6-oxohexyl)amino)isoindoline-1,3-dione]	> 1000	10 to 100	100 to 1000	10 to 100	–	–	–	–
O=C1CCC(N2C(=O)c3ccc(NCCCCCC(=O)N4CCC(n5cc(N6CCOCC6)cn5)CC4)cc3C2=O)C(=O)N1 (centres unmarked) [GS-047, 2-(2,6-Dioxopiperidin-3-yl)-5-((6-(4-(4-morpholino-1H-pyrazol-1-yl)piperidin-1-yl)-6-oxohexyl)amino)isoindoline-1,3-dione]	100 to 1000	10 to 100	100 to 1000	10 to 100	–	–	–	–
O=C1CCC(N2C(=O)c3ccc(NCCCCCC(=O)N4CCC(n5cc(N6CCCCC6)cn5)CC4)cc3C2=O)C(=O)N1 (centres unmarked) [GS-048, 2-(2,6-Dioxopiperidin-3-yl)-5-((6-oxo-6-(4-(4-(piperidin-1-yl)-1H-pyrazol-1-yl)piperidin-1-yl)hexyl)amino)isoindoline-1,3-dione]	10 to 100	< 10	100 to 1000	10 to 100	–	–	–	–
O=C1CCC(N2C(=O)c3ccc(NCCCCCC(=O)N4CCC(n5cc(C6CCCCC6)cn5)CC4)cc3C2=O)C(=O)N1 (centres unmarked) [GS-049, 5-((6-(4-(4-Cyclohexyl-1H-pyrazol-1-yl)piperidin-1-yl)-6-oxohexyl)amino)-2-(2,6-dioxopiperidin-3-yl)isoindoline-1,3-dione]	10 to 100	10 to 100	10 to 100	< 10	–	–	–	–
O=C1CCC(N2C(=O)c3ccc(NCCCCCC(=O)N4CCC(n5cc(-c6ccccc6)cn5)CC4)cc3C2=O)C(=O)N1 (centres unmarked) [GS-050, 2-(2,6-Dioxopiperidin-3-yl)-5-((6-oxo-6-(4-(4-phenyl-1H-pyrazol-1-yl)piperidin-1-yl)hexyl)amino)isoindoline-1,3-dione]	–	–	–	–	< 10	< 10	10 to 100	< 10
O=C1CCC(N2C(=O)c3ccc(NCCCCCC(=O)N4CCC(n5cc(-c6ncccn6)cn5)CC4)cc3C2=O)C(=O)N1 (centres unmarked) [GS-051, 2-(2,6-Dioxopiperidin-3-yl)-5-((6-oxo-6-(4-(4-(pyrimidin-2-yl)-1H-pyrazol-1-yl)piperidin-1-yl)hexyl)amino)isoindoline-1,3-dione]	10 to 100	< 10	100 to 1000	10 to 100	–	–	–	–
O=C1CCC(N2C(=O)c3ccc(NCCCCCC(=O)N4CCC(n5cc(-c6ccc7cccc(Br)c7n6)cn5)CC4)cc3C2=O)C(=O)N1 (centres unmarked) [GS-052, 5-((6-(4-(4-(8-Bromoquinolin-2-yl)-1H-pyrazol-1-yl)piperidin-1-yl)-6-oxohexyl)amino)-2-(2,6-dioxopiperidin-3-yl)isoindoline-1,3-dione]	100 to 1000	< 10	> 1000	< 10	–	–	–	–
